According to patent US20180037605A1, “SYNTHETIC PEPTIDES AND ENZYMATIC FORMATION OF INTRACELLULAR HYDROGELS” (BRANDEIS UNIVERSITY, priority 2015, published 2018):
Converted amounts (≈) assume the structure as drawn. Like-named read-outs stand apart in the source and are kept apart here.

What was measured:
HeLa cells [1] = system: HeLa cells
Experimental: The HeLa cell line CCL-2™ was purchased from the American Type Culture Collection (ATCC, Manassas, Va., USA).
The following formula was used to calculate the intracellular concentration of the peptides.
Intracellular concentration=(c*300 uL)/(cell number*4*10^−9 cm^3)
where c=(fluorescence−15406.76945)/74174.36908. An average size for the common cells used in cell culture (HeLa) is 15-20 microns in diameter for a suspended cell (volume 4/3πr^3=4000 μm^3 or 4×10^−9 cm^3) (Moran et al., Cell 141:1262 (2010), which is hereby incorporated by reference in its entirety). Methanol was used to break the cell membrane and fully dissolve compounds 1-t, 2-t, and 3.
To quantify the intracellular concentration of the D-peptide derivatives, the procedure illustrated in FIG. 9A was used to determine the cellular uptake of 1-t, 1, and 2-t after treating HeLa cells with these molecules, respectively. […] The “uptake concentration (Cu)” of 1-t or 1 is the sum of 3 and 1-t (or 1) inside the cells.

HeLa cells [2] = details: 200 μM, 24 hours
[3] = system: co-cultured HS-5 and A2780cis cells; test: Cell viability of co-cultured HS-5 and A2780cis cells; format: cell-based; details: for cell viability of co-cultured HS-5 and A2780cis cells: D-10 37 μg/mL
Experimental: (§1) 5×10^3 of SKOV3 cells (or A2780cis) and 5×10^3 HS-5 cells per well were seeded together and co-cultured in DMEM medium. Based on the results in FIG. 22, the concentrations of L-10 and D-10 at 73 and 37 μg/mL, respectively, were chosen. […] The inhibitory activities of L-10 and D-10 towards the co-culture agree well with their cytotoxicity against A2780cis, SKOV3, and H-5 cells. […] For example, on the first day, the cell viabilities of co-cultured HS-5 and SKOV3 cells and co-cultured HS-5 and A2780cis cells treated by D-10 (37 μg/mL) were 79% and 80%, respectively. While on the third day, the cell viabilities dropped to 44% and 57%, respectively. […] Contrary to the case of D-10, the efficacies of L-10 were almost the same between day two and day three (FIG. 25A), which agreed with the lower in vivo stability of L-10 than that of D-10.

A375 cells = test: MTT cell viability, A375; format: cell-based; details: third day (72 h)
Experimental: (§3) The cells were seeded in exponential growth phase in a 96 well plate at a concentration of 1×10^4 cell/well with 100 μL of culture medium. Cells were allowed to attach for 24 hours at 37° C., 5% CO2 and then the culture medium was removed with the help of vacuum pump. Culture medium containing the precursors in gradient concentrations was added to each well (0 μM as control). 10 μL of 5 mg/mL MTT ((3-(4,5-Dimethylthiazol-2-yl)-2,5-diphenyltetrazolium bromide) was added to each well after 24 hours, 48 hours, and 72 hours incubation. After 4 hours incubation of the plated cells in dark place, 100 μL 10% SDS with 0.01 M HCl was added to each well to dissolve the purple formazan and to stop the reduction reaction. 24 hours later, the absorbance of the solution at 595 nm was finally measured with a DTX 880 Multimode Detector.

HeLa cells [4] = test: MTT cell viability, HeLa; format: cell-based; details: third day (72 h)
Experimental: D-7 and D-10 (FIG. 12A), the enantiomers of L-7 and L-10, were prepared as described in Example 3. HeLa and SKOV3 cells were used in an MTT assay for assessing cytotoxicity of the peptides against these cancer cell lines.

U87MG cells = test: MTT cell viability, U87MG; format: cell-based
Experimental: as §3

HepG2 cells = test: MTT cell viability, HepG2; format: cell-based; details: third day (72 h)
Experimental: as §3

SKOV3 cells [5] = details: for IC50, SKOV3 / inhibition of SKOV3 cells by mixture with CP: 72 h
Experimental: SKOV3 cells were seeded in exponential growth phase in a 96 well plate at a concentration of 1×10^4 cell/well with 100 μL of McCoy's 5A medium modified supplemented with 10% fetal bovine serum (FBS), 100 U/mL penicillin and 100 μg/ml streptomycin. The cells were allowed to attach to the wells for 24 hours at 37° C., 5% CO2. The culture medium was removed and 100 μL culture medium containing compounds (immediately diluted from fresh prepared stock solution of 10 mM) at gradient concentrations (0 μM as the control) was placed into each well. McCoy's 5A medium modified was regarded as blank. After culturing at 37° C., 5% CO2 for 24 hours, 48 hours, and 72 hours, 10 μL of 5 mg/mL MTT (3-(4,5-Dimethylthiazol-2-yl)-2,5-diphenyltetrazolium bromide) was added to each well, and the plated cells were incubated in dark place for 4 hours. 100 μL 10% SDS with 0.01 M HCl was added to each well to stop the reduction reaction and to dissolve the purple formazan. After incubation of the cells at 37° C. for overnight, the OD at 595 nm of the solution was measured in a microplate reader.
as §3

MES-SA/D×5 cells = test: MTT cell viability, MES-SA/D×5; format: cell-based; details: third day (72 h)
Experimental: as §3

SKOV3 cells [6] = test: LC-MS of cell lysates and culture medium, SKOV3; format: cell-based; details: for cumulative intracellular concentration of precursor and hydrogelator relative to incubation concentration: 4 hours incubation; for Ratio of hydrogelator to precursor after 4 hours / Hydrogelator (12) intracellular concentration / Precursor (10) intracellular concentration: SKOV3 cell lysates, 20 μm D-10 or 50 μm L-10; for Hydrogelator (12) intracellular concentration / Precursor (10) intracellular concentration: 4 hours, 37° C.
Experimental: (§2) After confirming that CES converts the precursor L-10 or D-10 into the hydrogelator L-12 or D-12, the stability of the precursors (L-10 or D-10) when incubated with the ovarian cancer cells was determined. After culturing the precursors with SKOV3 or A2780cis cells at 37° C. for 4 hours, the cell lysates and culture medium were collected for liquid chromatography-mass spectrometry (LC-MS) analysis and the intracellular concentrations of the precursors, the hydrogelators, and the relevant proteolyzed products were determined. After incubation with SKOV3 or A2780cis cells for 4 hours, more than 85% of the precursors (L-10 or D-10) turned into the corresponding hydrogelators (L-12 or D-12; see Table 1 below).

PC-12 cells [7] = test: MTT cell viability, PC-12 neuronal cells; format: cell-based, rat; details: for inhibition of PC-12 cells: 20 μM (D-10) and 50 μM (L-10); for IC50, PC-12: third day (72 h)
Experimental: as §3

HCC1937 cells = test: MTT cell viability, HCC1937; format: cell-based; details: third day (72 h)
A2780cis cells [8] = details: for IC50, A2780cis: third day (72 h)
in vitro = details: human
Experimental: as §3

HS-5 cells [9] = test: MTT cell viability, HS-5 stromal cells; details: for inhibition of HS-5 cells: 20 μM (D-10) and 50 μM (L-10)
Experimental: as §3

HS-5 cells [10] = details: 72 h
Experimental: as §3

A2780cis cells [11] = test: LC-MS of cell lysates, A2780cis; format: cell-based; details: 100 μm D-10
Experimental: as §2

MCF-7 cells = test: MTT cell viability, MCF-7; format: cell-based; details: third day (72 h)
Experimental: as §3

MES-SA cells = test: MTT cell viability, MES-SA; format: cell-based; details: third day (72 h)
Experimental: as §3

[12] = mouse, in vivo, 20 mg/kg
T98G cells = test: MTT cell viability, T98G; format: cell-based
Experimental: as §3

A2780 cells = test: MTT cell viability, A2780; format: cell-based; details: for IC50, A2780: third day (72 h)
Saos-2 cells = test: MTT cell viability, Saos-2; format: cell-based; details: third day (72 h)
Experimental: as §3

[13] = system: co-cultured HS-5 and SKOV3 cells; test: Cell viability of co-cultured HS-5 and SKOV3 cells; format: cell-based; details: D-10 37 μg/mL
Experimental: as §1

[14] = Systemic toxicity after intravenous injection in mice; details: 5 to 20 mg/kg, after 7 days
PC-12 cells [15] = details: literature (Mendonca et al.); cited from earlier work
HS-5 cells [16] = details: literature (Mendonca et al.); cited from earlier work
SKOV3 cells [17] = details: read-out: IC50 of cisplatin; literature value (Oumzil et al.) used as comparison for SKOV3 inhibition; cited from earlier work
[18] = 200 μM in culture medium, 24 hours
[19] = combination of D-10 and CP, 72 hours

| Structure (SMILES) | IC50, A375 (A375 cells) | IC50, HeLa (HeLa cells [4]) | IC50, HepG2 (HepG2 cells) | IC50, SKOV3 (SKOV3 cells [5]) | IC50, MES-SA/D×5 (MES-SA/D×5 cells) | cumulative intracellular concentration of precursor and hydrogelator relative to incubation concentration (SKOV3 cells [6]) | Ratio of hydrogelator to precursor after 4 hours (SKOV3 cells [6]) | Hydrogelator (12) intracellular concentration (SKOV3 cells [6]) | Precursor (10) intracellular concentration (SKOV3 cells [6]) | inhibition of PC-12 cells (PC-12 cells [7]) | IC50, PC-12 (PC-12 cells [7]) | IC50, HCC1937 (HCC1937 cells) | IC50, A2780cis (A2780cis cells [8]) | inhibition of HS-5 cells (HS-5 cells [9]) | IC50, HS-5 (HS-5 cells [10]) | IC50, MCF-7 (MCF-7 cells) | IC50, MES-SA (MES-SA cells) | IC50, A2780 (A2780 cells) | IC50, Saos-2 (Saos-2 cells) | effect on weight and organ index of mice [14] | further results |
| --- | --- | --- | --- | --- | --- | --- | --- | --- | --- | --- | --- | --- | --- | --- | --- | --- | --- | --- | --- | --- | --- |
| O=C(CCC(=O)NCCS(=O)(=O)O)NCCNC(=O)[C@@H](Cc1ccccc1)NC(=O)[C@@H](Cc1ccccc1)NC(=O)CCNc1ccc([N+](=O)[O-])c2nonc12 [2-t] |  |  |  |  |  |  |  |  |  |  |  |  |  |  |  |  |  |  |  |  | Cu (HeLa cells [1]; [18]): 800 µM; uptake concentration (Cu) / intracellular concentration (HeLa cells [1]; [18]): 0.8 mM; intracellular concentration after first wash (HeLa cells [1]; 200 μM, 24 hour incubation): 0.6 mM; intracellular concentration after washing five times with PBS buffer (HeLa cells [1]; 200 μM, 24 hour incubation): 0.08 mM; decrease of intracellular concentration by each wash (HeLa cells [1]; 200 μM, 24 hour incubation, PBS wash): about 25%; uptake concentration relative to incubation (extracellular) concentration (HeLa cells [1]; 200 μM, 24 hours): 4 fold; stability inside cells (HeLa cells [2]): remained intact inside cells |
| O=C(CCC(=O)OCCNC(=O)[C@@H](Cc1ccccc1)NC(=O)[C@@H](Cc1ccccc1)NC(=O)Cc1ccc2ccccc2c1)NCCS(=O)(=O)O [D-10] | 38 µg/mL (≈ 52 µM) | 27 µg/mL (≈ 36.9 µM) | 88 µg/mL (≈ 120 µM) | 31 µg/mL (≈ 42.4 µM) | 163 µg/mL (≈ 223 µM) | about 5 fold | 6.75 | 108 μm | 16 μm | hardly inhibited | 62 µg/mL (≈ 84.8 µM) | 26 µg/mL (≈ 35.6 µM) | 36 µg/mL (≈ 49.3 µM) | hardly inhibited | 50 µg/mL (≈ 68.4 µM) | 25 µg/mL (≈ 34.2 µM) | 31 µg/mL (≈ 42.4 µM) | 37 µg/mL (≈ 50.6 µM) | 44 µg/mL (≈ 60.2 µM) | hardly affected | cell viability of co-cultured HS-5 and A2780cis cells ([3]; first day): 80%; cell viability of co-cultured HS-5 and A2780cis cells ([3]; third day): 57%; IC50, U87MG (U87MG cells; 72 hours incubation): 126 µg/mL (≈ 172 µM); inhibition of SKOV3 ovarian cancer cells (SKOV3 cells [5]; 48 h, 50 μM): over 70%; inhibition of SKOV3 cells by mixture with CP (SKOV3 cells [5]; 15 μg/mL): about 74%; viability of SKOV3 cells (SKOV3 cells [5]; human, 72 hours, 37 μg/mL): 10%; inhibition of A2780cis cells by combination with CP (A2780cis cells [8]; [19]): 70%; viability at 3 day, 37 μg/mL (in vitro): ~80%; Ratio of hydrogelator to precursor after 4 hours (A2780cis cells [11]): 8.43; Hydrogelator (12) intracellular concentration (A2780cis cells [11]; 4 hours, 37° C.): 582 μm; Precursor (10) intracellular concentration (A2780cis cells [11]; 4 hours, 37° C.): 69 μm; tolerability [12]: well tolerated; IC50, T98G (T98G cells; 72 hours incubation): 145 µg/mL (≈ 198 µM); viability of A2780 cells, combination with CP (A2780 cells; [19]): 9%; cell viability of co-cultured HS-5 and SKOV3 cells ([13]; first day): 79%; cell viability of co-cultured HS-5 and SKOV3 cells ([13]; third day): 44% |
| O=C(CCC(=O)OCCNC(=O)[C@H](Cc1ccccc1)NC(=O)[C@H](Cc1ccccc1)NC(=O)Cc1ccc2ccccc2c1)NCCS(=O)(=O)O [L-10] | 94 µg/mL (≈ 129 µM) | 53 µg/mL (≈ 72.5 µM) | 97 µg/mL (≈ 133 µM) | 46 µg/mL (≈ 62.9 µM) | 322 µg/mL (≈ 441 µM) | about 10 fold | 6.95 | 431 μm | 62 μm | hardly inhibited | above 73 μg/mL | 29 µg/mL (≈ 39.7 µM) | 39 µg/mL (≈ 53.4 µM) | hardly inhibited | above 73 μg/mL | 28 µg/mL (≈ 38.3 µM) | 40 µg/mL (≈ 54.7 µM) | 49 µg/mL (≈ 67 µM) | 80 µg/mL (≈ 109 µM) | hardly affected | inhibition of co-cultured HS-5 and A2780cis cells ([3]; L-10 73 μg/mL, third day): about 57%; cell viability of U87MG (U87MG cells; 365 μg/mL of L-10): about 70%; cytotoxicity toward U87MG (U87MG cells; at or below 146 μg/mL, 72 h): little cytotoxicity; inhibition of SKOV3 cells by mixture with CP (SKOV3 cells [5]; 37 μg/mL): ~87%; viability at 3 day, 73 μg/mL (in vitro): ~80%; cell viability of T98G (T98G cells; 365 μg/mL of L-10): ~60%; cytotoxicity toward T98G (T98G cells; at or below 146 μg/mL, 72 h): little cytotoxicity |
| N.N.[Cl][Pt][Cl] [cisplatin, reference compound] |  |  |  |  |  |  |  |  |  |  |  |  |  |  |  |  |  |  |  |  | inhibition of SKOV3 cells (SKOV3 cells [5]; 37 μg/mL, third day): 90%; inhibition of SKOV3 cells (SKOV3 cells [5]; CP 6 μg/mL alone, 72 hours): 48%; cell death of SKOV3 cells (SKOV3 cells [5]; CP 6 μg/mL alone, 72 hours (control compound experiment)): about 40%; inhibition of A2780cis cells (A2780cis cells [8]; 37 μg/mL, third day): about 98%; HS-5 cells killed / inhibited (HS-5 cells [9]; 37 μg/mL, third day): ~100%; inhibition of PC-12 cells (PC-12 cells [15]): significantly inhibiting; inhibition of HS-5 cells (HS-5 cells [16]): significantly inhibiting; IC50 (SKOV3 cells [17]): 35 µM |
